Laboratory results: BindingDB's records for doi:10.7270/Q2T15221 (Nmmlsc, 2010)

molecular target: Ras-related protein Rab-2A (Canis lupus familiaris, UniProt P61105); test: potency of blocking fluorescent GTP on Rab2A – biochemical, GST-Rab2 beads, Bodipy-FL-GTP, flow cytometry, multiplex, dose response (AID 1337)
Sequence (P61105 whole entry): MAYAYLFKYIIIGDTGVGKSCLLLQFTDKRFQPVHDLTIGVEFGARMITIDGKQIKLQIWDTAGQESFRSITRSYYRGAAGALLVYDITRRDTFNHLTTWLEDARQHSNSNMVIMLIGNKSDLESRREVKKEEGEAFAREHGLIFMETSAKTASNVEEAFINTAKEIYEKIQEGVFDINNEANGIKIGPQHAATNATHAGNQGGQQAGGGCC

EC50 [µM]	SMILES
3.64	O=C(O)/C=C/c1cn(Cc2ccccc2)nc1-c1cccs1 [(E)-3-(1-benzyl-3-thiophen-2-ylpyrazol-4-yl)prop-2-enoic acid]
0.738	N=C(N)NS(=O)(=O)c1ccc(NC(=S)NC(=O)c2ccc3c(c2)OCO3)cc1 [MLS000621545]
5.37	CC(C)C(NCc1c(Cl)cccc1Cl)C(=O)O (stereo not drawn) [2-[(2,6-dichlorobenzyl)amino]-3-methyl-butyric acid]
6.26	Cc1cc(C)c(C)c(C(=O)c2ccccc2C(=O)O)c1C [2-(2,3,5,6-tetramethylbenzoyl)benzoic acid]
0.851	COCCn1c(=S)[nH]c2cc(C(=O)N3CCc4ccccc4C3)ccc2c1=O [SMR000310652]
2.67	CCS(=O)(=O)N1N=C(c2cccc(NS(C)(=O)=O)c2)CC1c1ccc(C)cc1 (stereo not drawn) [MLS000680398]
1.99	COC(=O)c1c(-n2c(O)c3c(c2O)[C@]2(C(=O)Nc4c(C)cc(C)cc42)N2CCC[C@@H]32)sc(C)c1C [2-[(3S,3'aR,8'aS,8'bS)-5,7-dimethyl-1',2,3'-trioxo-2'-spiro[1H-indole-3,4'-3a,6,7,8,8a,8b-hexahydropyrrolo[3,4-a]pyrrolizine]yl]-4,5-dimethyl-3-thiophenecarboxylic acid methyl ester]
2.76	O=C(O)c1ccccc1Sc1ncnc2sc3c(c12)CCC3
35.9	CCOc1ccc(/C=C2\SC(N3CCc4ccccc4C3)=NC2=O)cc1 [(5Z)-2-(3,4-dihydro-1H-isoquinolin-2-yl)-5-(4-ethoxybenzylidene)-2-thiazolin-4-one]
4.02	O=C1C([N+](=O)[O-])=Cc2oc3c(c2C1/C=N/Cc1ccccc1)CCCC3 (stereo not drawn) [(1Z)-3-nitro-1-[[(phenylmethyl)amino]methylidene]-6,7,8,9-tetrahydrodibenzofuran-2-one]
1.69	Cc1ccc(C2=NN(S(=O)(=O)c3ccccc3)C(c3ccccc3O)C2)cc1 (stereo not drawn) [2-[2-(benzenesulfonyl)-5-(4-methylphenyl)-3,4-dihydropyrazol-3-yl]phenol]
30.9	COc1ccc(-c2cc(C#N)nc(N3CCNCC3)n2)cc1 [6-(4-Methoxy-phenyl)-2-piperazin-1-yl-pyrimidine-4-carbonitrile]
5.42	CCCN1C(=O)/C(=C/C=C2\N(CC)c3ccccc3C2(C)C)SC1=S [(5Z)-5-[(2Z)-2-(1-ethyl-3,3-dimethyl-2-indolylidene)ethylidene]-3-propyl-2-sulfanylidene-4-thiazolidinone]
0.741	O=C(O)c1ccccc1NCCc1ccc(Cl)cc1 [2-[2-(4-chlorophenyl)ethylamino]benzoic acid]
0.704	COc1ccc(C2CC(c3ccccc3)=NN2c2ccc(S(N)(=O)=O)cc2)cc1 (stereo not drawn) [4-[3-(4-methoxyphenyl)-5-phenyl-3,4-dihydropyrazol-2-yl]benzenesulfonamide]
3.45	Cc1ccccc1NC(=O)C1CCCN1S(=O)(=O)c1cccc2cccnc12 (stereo not drawn) [MLS000119085]
26.3	OC(CNCCc1c[nH]c2ccccc12)Cn1c2ccc(Cl)cc2c2cc(Cl)ccc21 (stereo not drawn) [1-(3,6-dichloro-9-carbazolyl)-3-[2-(3H-indol-3-yl)ethylamino]-2-propanol]

SMILES	EC50 [µM]
Cc1nn(Cc2ccccc2)c(Cl)c1C(=O)O [1-benzyl-5-chloro-3-methyl-pyrazole-4-carboxylic acid]	4.88
